Key:
Assay in all cases: Kinase profiling
Assay type in all cases: biochemical
EEF2K = target: T1, EEF2K (Homo sapiens, UniProt O00418)
T1 construct: purchased ProQinase (Freiburg, Germany)
T1 sequence (O00418 1-725): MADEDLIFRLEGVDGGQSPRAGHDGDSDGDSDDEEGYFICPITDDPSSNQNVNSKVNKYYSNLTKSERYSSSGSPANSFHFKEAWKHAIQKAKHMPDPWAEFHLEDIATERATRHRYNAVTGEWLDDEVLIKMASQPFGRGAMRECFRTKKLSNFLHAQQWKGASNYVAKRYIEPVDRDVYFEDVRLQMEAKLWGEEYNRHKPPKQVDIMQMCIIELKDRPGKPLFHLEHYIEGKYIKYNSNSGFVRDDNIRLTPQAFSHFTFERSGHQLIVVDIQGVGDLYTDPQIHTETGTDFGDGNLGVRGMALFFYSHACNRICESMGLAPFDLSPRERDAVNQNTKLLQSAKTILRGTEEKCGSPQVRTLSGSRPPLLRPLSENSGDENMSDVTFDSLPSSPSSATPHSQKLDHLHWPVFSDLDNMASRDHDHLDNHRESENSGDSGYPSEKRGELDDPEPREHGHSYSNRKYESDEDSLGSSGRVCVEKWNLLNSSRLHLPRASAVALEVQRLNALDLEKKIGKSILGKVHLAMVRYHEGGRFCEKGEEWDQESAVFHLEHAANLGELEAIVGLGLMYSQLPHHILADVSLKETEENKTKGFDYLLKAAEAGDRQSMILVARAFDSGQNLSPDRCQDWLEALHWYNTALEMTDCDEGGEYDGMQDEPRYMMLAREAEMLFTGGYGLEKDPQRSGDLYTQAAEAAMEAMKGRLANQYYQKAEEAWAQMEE
Experimental: (§1) The analysis was performed by ProQinase (Freiburg, Germany).

DAPK1 = target: T2, DAPK1 (Homo sapiens, UniProt P53355)
T2 construct: purchased ProQinase (Freiburg, Germany)
Experimental: as §1

SRPK2 = target: T3, SRPK2 (Homo sapiens, UniProt P78362)
T3 construct: purchased ProQinase (Freiburg, Germany)
Experimental: as §1

PRKG2 = target: T4, PRKG2 (Homo sapiens, UniProt Q13237)
T4 construct: purchased ProQinase (Freiburg, Germany)
T4 sequence (Q13237 1-762): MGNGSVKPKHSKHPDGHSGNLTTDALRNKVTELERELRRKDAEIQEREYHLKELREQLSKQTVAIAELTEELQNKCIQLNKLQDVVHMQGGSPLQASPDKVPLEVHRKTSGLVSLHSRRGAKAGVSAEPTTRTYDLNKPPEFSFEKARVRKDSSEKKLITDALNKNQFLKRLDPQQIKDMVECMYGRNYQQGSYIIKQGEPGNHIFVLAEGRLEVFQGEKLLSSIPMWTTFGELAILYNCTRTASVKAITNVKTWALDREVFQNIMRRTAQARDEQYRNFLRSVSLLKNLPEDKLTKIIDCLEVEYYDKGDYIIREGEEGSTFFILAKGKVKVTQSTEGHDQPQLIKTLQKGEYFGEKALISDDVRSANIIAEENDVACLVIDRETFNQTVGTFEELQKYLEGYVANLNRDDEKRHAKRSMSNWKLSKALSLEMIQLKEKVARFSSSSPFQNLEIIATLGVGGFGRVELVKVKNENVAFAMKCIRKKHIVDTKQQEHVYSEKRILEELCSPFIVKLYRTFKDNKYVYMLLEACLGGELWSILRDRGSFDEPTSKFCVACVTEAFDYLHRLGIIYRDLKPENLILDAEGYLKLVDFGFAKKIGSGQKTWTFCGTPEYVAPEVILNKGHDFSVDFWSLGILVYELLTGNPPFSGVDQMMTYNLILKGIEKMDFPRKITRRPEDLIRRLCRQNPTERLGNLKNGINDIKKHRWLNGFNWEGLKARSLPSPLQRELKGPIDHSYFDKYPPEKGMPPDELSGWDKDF
Experimental: as §1

DDR2 = target: T5, DDR2 (Homo sapiens, UniProt Q16832)
T5 construct: purchased ProQinase (Freiburg, Germany)
T5 sequence (Q16832 22-855): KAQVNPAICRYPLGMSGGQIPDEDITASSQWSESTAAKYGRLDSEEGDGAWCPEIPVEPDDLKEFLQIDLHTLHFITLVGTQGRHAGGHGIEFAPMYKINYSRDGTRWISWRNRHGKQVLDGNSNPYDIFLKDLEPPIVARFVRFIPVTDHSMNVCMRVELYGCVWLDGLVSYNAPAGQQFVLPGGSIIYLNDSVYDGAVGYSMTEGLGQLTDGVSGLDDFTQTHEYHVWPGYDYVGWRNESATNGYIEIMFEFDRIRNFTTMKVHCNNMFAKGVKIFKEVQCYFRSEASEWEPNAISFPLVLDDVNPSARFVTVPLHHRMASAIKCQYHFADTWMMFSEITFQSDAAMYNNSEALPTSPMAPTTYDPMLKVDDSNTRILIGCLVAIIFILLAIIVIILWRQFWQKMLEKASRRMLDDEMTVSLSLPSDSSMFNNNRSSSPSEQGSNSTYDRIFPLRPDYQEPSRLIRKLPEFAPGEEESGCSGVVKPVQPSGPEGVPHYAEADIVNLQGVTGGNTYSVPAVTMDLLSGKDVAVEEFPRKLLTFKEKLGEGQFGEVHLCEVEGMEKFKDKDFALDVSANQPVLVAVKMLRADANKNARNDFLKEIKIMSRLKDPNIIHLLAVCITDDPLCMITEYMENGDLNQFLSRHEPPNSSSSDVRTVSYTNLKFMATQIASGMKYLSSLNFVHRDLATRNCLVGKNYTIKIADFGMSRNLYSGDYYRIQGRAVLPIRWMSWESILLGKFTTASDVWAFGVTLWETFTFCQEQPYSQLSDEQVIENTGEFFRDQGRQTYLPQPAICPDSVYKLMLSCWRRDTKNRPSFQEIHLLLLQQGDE
Experimental: as §1

PKN3 = target: T6, PKN3 (Homo sapiens, UniProt Q6P5Z2)
T6 construct: purchased ProQinase (Freiburg, Germany)
Experimental: as §1

T6 sequence (Q6P5Z2 whole entry): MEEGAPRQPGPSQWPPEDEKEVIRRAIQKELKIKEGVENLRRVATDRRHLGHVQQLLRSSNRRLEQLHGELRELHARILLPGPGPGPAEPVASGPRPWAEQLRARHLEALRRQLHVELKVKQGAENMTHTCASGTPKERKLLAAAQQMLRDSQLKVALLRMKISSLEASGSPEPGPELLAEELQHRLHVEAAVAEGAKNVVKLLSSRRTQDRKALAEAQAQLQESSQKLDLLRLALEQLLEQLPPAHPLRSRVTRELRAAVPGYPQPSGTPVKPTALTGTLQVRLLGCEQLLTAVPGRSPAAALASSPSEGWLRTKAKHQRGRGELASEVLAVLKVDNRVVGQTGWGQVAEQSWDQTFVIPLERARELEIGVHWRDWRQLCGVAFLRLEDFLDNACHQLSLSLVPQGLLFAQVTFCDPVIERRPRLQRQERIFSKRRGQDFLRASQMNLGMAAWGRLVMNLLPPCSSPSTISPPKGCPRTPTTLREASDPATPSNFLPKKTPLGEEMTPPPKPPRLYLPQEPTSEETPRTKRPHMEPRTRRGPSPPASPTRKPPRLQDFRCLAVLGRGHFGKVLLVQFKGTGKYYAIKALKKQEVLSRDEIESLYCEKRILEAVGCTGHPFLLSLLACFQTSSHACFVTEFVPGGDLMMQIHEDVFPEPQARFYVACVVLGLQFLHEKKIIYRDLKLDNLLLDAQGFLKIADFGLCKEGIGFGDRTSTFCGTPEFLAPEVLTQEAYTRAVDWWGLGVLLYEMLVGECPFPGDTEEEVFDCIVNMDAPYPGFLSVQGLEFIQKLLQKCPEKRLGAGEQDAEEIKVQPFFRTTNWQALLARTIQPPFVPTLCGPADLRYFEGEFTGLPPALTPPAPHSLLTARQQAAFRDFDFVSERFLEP
T3 sequence (P78362 whole entry): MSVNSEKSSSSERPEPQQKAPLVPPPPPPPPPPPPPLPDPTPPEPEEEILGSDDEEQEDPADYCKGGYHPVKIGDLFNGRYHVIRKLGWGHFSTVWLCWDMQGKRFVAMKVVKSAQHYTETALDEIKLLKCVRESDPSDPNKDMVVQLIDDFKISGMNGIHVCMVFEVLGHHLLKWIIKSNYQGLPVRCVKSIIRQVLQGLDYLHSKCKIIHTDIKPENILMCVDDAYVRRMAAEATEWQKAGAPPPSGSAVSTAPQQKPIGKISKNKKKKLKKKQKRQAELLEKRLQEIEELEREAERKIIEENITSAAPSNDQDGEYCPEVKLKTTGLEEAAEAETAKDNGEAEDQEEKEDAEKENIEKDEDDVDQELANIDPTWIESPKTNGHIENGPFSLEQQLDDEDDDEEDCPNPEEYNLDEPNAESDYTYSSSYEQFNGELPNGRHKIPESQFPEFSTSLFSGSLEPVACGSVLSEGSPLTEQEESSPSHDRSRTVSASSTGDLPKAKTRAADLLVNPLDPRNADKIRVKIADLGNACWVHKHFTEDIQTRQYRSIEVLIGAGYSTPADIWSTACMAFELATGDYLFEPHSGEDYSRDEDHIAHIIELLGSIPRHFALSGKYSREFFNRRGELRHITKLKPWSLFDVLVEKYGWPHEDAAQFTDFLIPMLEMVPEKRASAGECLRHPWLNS
T2 sequence (P53355 whole entry): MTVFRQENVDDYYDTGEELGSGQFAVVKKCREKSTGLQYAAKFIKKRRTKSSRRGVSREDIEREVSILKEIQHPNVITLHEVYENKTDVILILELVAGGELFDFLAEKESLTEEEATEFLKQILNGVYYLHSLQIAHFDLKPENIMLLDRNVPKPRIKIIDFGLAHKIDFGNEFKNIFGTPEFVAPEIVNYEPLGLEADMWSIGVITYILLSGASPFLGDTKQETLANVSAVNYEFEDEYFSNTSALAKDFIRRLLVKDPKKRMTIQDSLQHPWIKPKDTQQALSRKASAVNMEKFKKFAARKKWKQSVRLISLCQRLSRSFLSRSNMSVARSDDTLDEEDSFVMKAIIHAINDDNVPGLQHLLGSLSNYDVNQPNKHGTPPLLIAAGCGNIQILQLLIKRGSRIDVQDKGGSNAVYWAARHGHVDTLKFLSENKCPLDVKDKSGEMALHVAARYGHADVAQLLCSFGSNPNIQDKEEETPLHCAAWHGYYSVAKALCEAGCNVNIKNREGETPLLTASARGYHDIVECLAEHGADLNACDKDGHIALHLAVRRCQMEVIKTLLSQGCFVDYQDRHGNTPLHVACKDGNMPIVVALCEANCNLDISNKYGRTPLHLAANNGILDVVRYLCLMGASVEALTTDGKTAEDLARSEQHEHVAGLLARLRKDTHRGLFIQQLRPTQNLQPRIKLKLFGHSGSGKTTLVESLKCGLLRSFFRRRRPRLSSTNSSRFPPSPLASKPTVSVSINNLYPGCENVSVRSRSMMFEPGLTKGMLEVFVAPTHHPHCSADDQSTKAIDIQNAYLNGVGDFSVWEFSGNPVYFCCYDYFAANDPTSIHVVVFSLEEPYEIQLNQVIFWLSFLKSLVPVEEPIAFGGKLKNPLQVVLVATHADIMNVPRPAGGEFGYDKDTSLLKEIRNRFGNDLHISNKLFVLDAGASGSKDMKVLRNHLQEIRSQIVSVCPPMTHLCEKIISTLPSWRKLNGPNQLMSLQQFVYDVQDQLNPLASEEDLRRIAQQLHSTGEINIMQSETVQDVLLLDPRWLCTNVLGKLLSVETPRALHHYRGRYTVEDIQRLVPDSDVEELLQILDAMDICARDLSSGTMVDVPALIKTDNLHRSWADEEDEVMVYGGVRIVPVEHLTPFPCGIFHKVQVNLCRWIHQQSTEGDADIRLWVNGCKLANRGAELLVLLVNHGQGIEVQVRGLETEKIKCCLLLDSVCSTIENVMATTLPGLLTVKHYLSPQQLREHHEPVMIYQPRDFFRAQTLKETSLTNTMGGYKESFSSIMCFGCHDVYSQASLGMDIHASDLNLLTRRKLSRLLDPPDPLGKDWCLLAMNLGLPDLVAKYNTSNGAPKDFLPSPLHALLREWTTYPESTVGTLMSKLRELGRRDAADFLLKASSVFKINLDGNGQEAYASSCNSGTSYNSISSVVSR

SMILES: O=C(Nc1ccc(F)c(Nc2ccc3c(c2)CCCCC3=O)c1)c1cccc(F)c1 [Compound 109]
- Residual activity (EEF2K; 1.0E-05 M): 94 % of control
- Residual activity (EEF2K; 1.0E-06 M): 95 % of control
- Residual activity (DAPK1; 1.0E-05 M): 102 % of control
- Residual activity (DAPK1; 1.0E-06 M): 109 % of control
- Residual activity (SRPK2; 1.0E-05 M): 102 % of control
- Residual activity (SRPK2; 1.0E-06 M): 111 % of control
- Residual activity (PRKG2; 1.0E-05 M): 84 % of control
- Residual activity (PRKG2; 1.0E-06 M): 88 % of control
- Residual activity (DDR2; 1.0E-05 M): 64 % of control
- Residual activity (DDR2; 1.0E-06 M): 93 % of control
- Residual activity (PKN3; 1.0E-05 M): 92 % of control
- Residual activity (PKN3; 1.0E-06 M): 91 % of control

SMILES: O=C(Cc1ccccc1)Nc1ccc(F)c(Nc2ccc3c(c2)CCCCC3=O)c1 [Compound 100]
- Residual activity (EEF2K; 1.0E-05 M): 89 % of control
- Residual activity (EEF2K; 1.0E-06 M): 102 % of control
- Residual activity (DAPK1; 1.0E-05 M): 110 % of control
- Residual activity (DAPK1; 1.0E-06 M): 127 % of control
- Residual activity (SRPK2; 1.0E-05 M): 94 % of control
- Residual activity (SRPK2; 1.0E-06 M): 100 % of control
- Residual activity (PRKG2; 1.0E-05 M): 83 % of control
- Residual activity (PRKG2; 1.0E-06 M): 94 % of control
- Residual activity (DDR2; 1.0E-05 M): 71 % of control
- Residual activity (DDR2; 1.0E-06 M): 94 % of control
- Residual activity (PKN3; 1.0E-05 M): 101 % of control
- Residual activity (PKN3; 1.0E-06 M): 104 % of control
